# Laboratory results reported in patent US11667656B2, “Crystalline forms of Tenofovir alafenamide” (Apotex Inc., priority 2021, dated 2023).
# Structures can show the parent of a compound that is named as a salt.
# Tests used:
# [1] = Wood apparatus, bath 37° C., 900 mL distilled water, 50 rpm, compressed 200-400 mg samples
# Procedure: Intrinsic dissolution rate (IDR) measurements were performed using a Wood apparatus (Pharma Test PT-DT8 instrument) having a bath temperature of 37° C. Samples were prepared by compressing 200-400 mg samples at 1.5 metric tons for 1 minute. A dissolution medium consisting of 900 mL distilled water, and rotation speed of 50 rpm, was used for each experiment.
# [2] = reported; cited from earlier work
# [3] = CDER review, NDA 207561; cited from earlier work
# [4] = rats; in comparison to tenofovir alafenamide hemifumarate; CN 105237571 B; cited from earlier work
compound,measurement,setting,value
"CC(C)OC(=O)[C@H](C)N[P@](=O)(CO[C@H](C)Cn1cnc2c(N)ncnc21)Oc1ccccc1 [Tenofovir alafenamide fumarate (1:1), Tenofovir alafenamide fumarate]",Intrinsic Dissolution Rate,[1],0.87 mg min^−1 cm^−2
"CC(C)OC(=O)[C@H](C)N[P@](=O)(CO[C@H](C)Cn1cnc2c(N)ncnc21)Oc1ccccc1 [tenofovir alafenamide, L-alanine, N—[(S)-[[(1 R)-2-(6-amino-9H-purin-9-yl)-1-methylethoxy]methyl]phenoxyphosphinyl]-, 1-methylethyl ester]",bioavailability,[2],low
Tenofovir alafenamide succinate [Tenofovir alafenamide succinate (1:1)],Intrinsic Dissolution Rate,[1],0.67 mg min^−1 cm^−2
tenofovir alafenamide hemifumarate,Biopharmaceutics Classification System (BCS) class,[3],Class III
same,solubility,[3],high
tenofovir alafenamide hemisuccinate,absorption (AUC),[4],higher
same,maximum plasma concentration (Cmax),[4],higher
